From a melting point compilation (Tetko et al.) come the findings set out here.

In turn, `Cn1nc(C(=O)O)cc1-c1ccco1` displayed a melting point of 142 to 144 °C. In turn, `CNc1ccc(C(=O)O)cc1` came in with a melting point of 160 to 163 °C.

For `Cc1ccccc1NC(=O)c1cnc(C(C)(C)C)cn1`, the melting point came to 81 °C. Molecule `Nc1nonc1N` returned a melting point of 178 to 183 °C. For `C1COCCOCCOCCOCCOCCN1`, the melting point came out at 48 °C. On to `O=C(O)C=Cc1ccc(Cl)cc1Cl`, for which the melting point was in the range of 245 to 248 °C.

The molecule `CC(=O)CC(=O)CC(C)=O` displayed a melting point of 49 °C. Turning to `C=C(Cl)c1ccccc1`, the melting point was -23 °C. With `CCOC(=O)c1cc(C)n(C)n1`, the melting point stood at 87 °C. `CCCCCCCCCCCCCCCCCCCCCCCCCCCCCCCCCCC` showed a melting point of 75 °C. As to `Cc1nc(-c2ccc(C=O)cc2)no1`, the melting point was 115 °C. In turn, `COc1ccc(C=C2N=C(c3ccccc3)OC2=O)cc1` had a melting point of 151 to 152 °C. Next, `O=S(=O)(Cl)c1ccc(-c2ccc(Cl)cc2)cc1`: 109 to 110 °C; `N#CC1(C(=O)c2ccccc2)C(c2ccc(F)cc2)NC(=O)NC1c1ccc(F)cc1` (centres undefined): 226 to 227 °C. Then `O=c1ccc2ccc(O)c(O)c2o1`, with 262 °C; and `Oc1ccccc1N1CCNCC1`, with 125 °C; and `Cc1c(Br)c(Br)c(Br)c(Br)c1Br`, with 288 °C. As for `O=C(O)c1nnn(Cc2ccccc2)c1C(=O)O`, the melting point was found to be 180 °C. `O=CCCCC=O`: the melting point was -6 °C.

With `CC(=O)C(C#N)(CC(=O)c1ccccc1)c1ccccc1` (centres undefined), the melting point was 94 °C.

In turn, `CCC(=O)Nc1nc(C)c(Cl)s1` registered a melting point of 159 °C. `C1SCSCS1` had a melting point of 220 °C. In turn, `CCOC(=O)C(C#N)=C(N)c1cc2cc(Br)cc(OC)c2oc1=O` displayed a melting point of 274 to 276 °C. Consider `O=C(Nc1ccc(N=Nc2ccc([N+]([O-])=Nc3ccc(NC(=O)c4ccccc4)cc3)cc2)cc1)c1ccccc1`, for which the melting point was 328 °C. `CC1C(=O)OC(C)(C)OC1=O` showed a melting point of 109 to 113 °C. `CCOC(=O)NC(=S)Nc1ncccc1C` had a melting point of 124 to 126 °C. Then `Cc1c(N)cccc1C(F)(F)F`, with 39 °C; and `N#CC(c1ccc(Cl)cc1)c1c(Cl)cc(-n2ncc(=O)[nH]c2=O)cc1Cl` (centres undefined), with 295 °C. `Cn1cnc2c(N)ncnc21`: the melting point lay in the range of 300 to 302 °C. In turn, `Cc1nc(-c2cc(C(=O)Cl)no2)cs1` gave a melting point of 89 to 91 °C. In turn, `O=[N+]([O-])C=Cc1ccccc1Cl` displayed a melting point of 48 °C. In turn, `COc1ccccc1C1Nn2c(COc3ccccc3)nnc2S1` (centres undefined) yielded a melting point of 126 °C. Regarding `CN=NC`, the melting point is -78 °C.

Molecule `O=C(O)c1ccc2ncccc2c1` had a melting point of 293 to 294 °C. The molecule `C1CN(SSN2CCOCC2)CCO1` returned a melting point of 124 °C. The molecule `CC(C)(C)OC(=O)N1CCN(c2ccc(C=O)cn2)CC1` returned a melting point of 126 to 128 °C. With `O=C(O)CN(CC(=O)O)c1ccccc1OCCOc1ccccc1N(CC(=O)O)CC(=O)O`, the melting point lay within 177 to 179 °C. In the case of `Cc1ccc2c(c1C)CCC1C2CC=C2CC(C(=O)O)CCC21C` (centres undefined), the melting point was found to be 162 °C. With `ClC=CCCl` (mixture of isomers), the melting point is -50 °C. `C1CC2CCC1C2` had a melting point of 87.5 °C. Next, `COc1cccc(O)c1`: -17 °C; `Nc1ccc(-c2ccc(N)cc2Cl)c(Cl)c1`: 165 °C. Consider `O=C(O)c1ccc(N/N=C(\C(=O)c2cccs2)C(=O)C(F)(F)F)cc1`, for which the melting point was 219 °C. Then `O=C(c1ccccc1)c1ccc(OCc2ccccc2)cc1`, with 82 °C; and `Fc1c(F)c(F)c(P(CCP(c2c(F)c(F)c(F)c(F)c2F)c2c(F)c(F)c(F)c(F)c2F)c2c(F)c(F)c(F)c(F)c2F)c(F)c1F`, with 190 to 195 °C.

With `O=CC(O)CO` (centres undefined), the melting point stood at 145 °C. As to `Cc1coc2ccccc2c1=O`, the melting point is 68 °C.

`Nc1oncc1-c1ccccn1` displayed a melting point of 133 to 136 °C. In the case of `O=C(c1ccc(Cl)cc1)c1noc(-c2ccc3ccccc3c2)c1S(=O)(=O)c1ccccc1`, the melting point was 135 °C. On to `C=CCCCC(=O)O`, for which the melting point is -37 °C. Next, `OCCCCC#CC#CCCCCO`: 50 °C; `CNC(C)=C(C(=O)OC)C(=O)c1cc(Cl)nc(Cl)c1`: 112 to 115 °C. Molecule `CC(C)(C)N(NC(=O)c1ccccc1)C(=O)c1cccc(Cl)c1` yielded a melting point of 180 °C. In turn, `CC(=O)N1CCC(c2c[nH]c3ccccc23)CC1` came in with a melting point of 174 to 176 °C.

In the case of `CNC(=O)Oc1ccc(N(C)C)c(C)c1`, the melting point came to 93.9 °C. The molecule `COc1ccc2c(c1)CC(CCC(=O)O)(CCC(=O)O)C2=O` showed a melting point of 151 °C.

In turn, `OC(c1ccc(Cl)cc1)(c1cncnc1)c1ccccc1Cl` (centres undefined) gave a melting point of 118 °C. Molecule `OCc1ccc(N2CCCCC2)nc1` registered a melting point of 70 to 71 °C. Next, `CCCCN(CCCC)CCCC`: -70 °C. Next, `CCC(C(=O)NC(N)=O)c1ccccc1` (centres undefined): 162 °C; `CC(C)(C)S(=O)(=O)c1cnc(N2CCOCC2)nc1N`: 196 to 198 °C; `O=c1c2ccccc2[nH]c(=S)n1Cc1ccccc1`: 256 to 257 °C. Turning to `CC(C)(C(=O)O)C(O)c1ccccc1` (centres undefined), the melting point lay in the range of 134 to 137 °C. Molecule `Nc1ccc([N+](=O)[O-])cc1Cl` registered a melting point of 108 °C.

On to `CC(C)c1ccc(C(C)C)cc1`, for which the melting point was -17 °C.

Molecule `CC(C=CC=C(C)C=CC1=C(C)C=CCC1(C)C)=CC=O` displayed a melting point of 77.5 °C.

As for `CCCCCCCOC(=O)CCCCC`, the melting point is -34.4 °C. As for `CCOP(=O)(OCC)Oc1c2cccc1Cc1cccc(c1O)Cc1cccc(c1OP(=O)(OCC)OCC)Cc1cccc(c1O)C2`, the melting point lay in the range of 219 to 224 °C. As for `COC(=O)C1(S(=O)(=O)c2ccc([N+](=O)[O-])cc2)CC1`, the melting point worked out at 127 °C. For `O=c1ccn(C2CCC(CO)O2)c(=O)[nH]1` (centres undefined), the melting point stood at 128 °C. In the case of `COc1ccccc1OCC(N)=O`, the melting point is 142 °C. Then `O=C(O)c1ccc(-n2ccc(C(F)(F)F)n2)cc1`, with 189 to 190 °C. Next, `O=C(O)CSc1ccc(F)cc1`: 78 °C; `CCC(CC)C(N)CC(=O)O` (centres undefined): 213 to 214 °C. `C=C(C(=O)OC1CC(C)=CCCC(CO)=CC2OC(=O)C(=C)C21)C(O)CO` (centres undefined) yielded a melting point of 143 °C.

`CCOC(=O)c1csc(Cn2cnc(Cl)c2Cl)n1` had a melting point of 126 to 129 °C.

`O=c1[nH]c(=O)n(C2CCCO2)cc1F` (centres undefined) returned a melting point of 172 °C.

`O=C(CBr)c1ccc(-c2ccsc2)cc1` had a melting point of 113 to 115 °C.

On to `Nc1ccc(C(=O)c2ccccc2)cc1[N+](=O)[O-]`, for which the melting point was in the range of 140 to 143 °C.
